Columns and labels:
[1] = Ratio of unbound brain concentration to drug level in cerebrospinal fluid in Sprague-Dawley rat at 3.2 mg/kg, sc by LC-MS/MS analysis; type: ADME, organism-based; parameters: dose 3.2 mg/kg, route subcutaneous; conditions: in vivo
[2] = AUC(0 to 2 hrs) in cynomolgus monkey plasma at 1 mg/kg, sc by LC-MS/MS analysis; type: ADME, organism-based, Macaca fascicularis; parameters: time < 2 hr, dose 1 mg/kg, route subcutaneous
[3] = AUC(0 to 2 hrs) in Sprague-Dawley rat plasma at 3.2 mg/kg, sc by LC-MS/MS analysis; type: ADME, organism-based; parameters: time < 2 hr, dose 3.2 mg/kg, route subcutaneous
[4] = AUC(0 to infinity) in Sprague-Dawley rat cerebrospinal fluid at 3.2 mg/kg, sc by LC-MS/MS analysis; type: ADME, organism-based; parameters: time infinity, dose 3.2 mg/kg, route subcutaneous
[5] = Unbound fraction in cynomolgus monkey brain at 1 mg/kg, sc by LC-MS/MS analysis; type: ADME, organism-based, Macaca fascicularis; parameters: dose 1 mg/kg, route subcutaneous
[6] = Ratio of unbound drug level in brain to plasma in Beagle dog at 1 mg/kg, sc by LC-MS/MS analysis; type: ADME, organism-based, Canis lupus familiaris; parameters: dose 1 mg/kg, route subcutaneous; conditions: brain and plasma
[7] = Ratio of drug level in brain to plasma in Sprague-Dawley rat at 3.2 mg/kg, sc by LC-MS/MS analysis; type: ADME, organism-based; parameters: dose 3.2 mg/kg, route subcutaneous; conditions: read-out: BPR
[8] = AUC(0 to 4 hrs) in Beagle dog plasma at 1 mg/kg, sc by LC-MS/MS analysis; type: ADME, organism-based, Canis lupus familiaris; parameters: time < 4 hr, dose 1 mg/kg, route subcutaneous
[9] = AUC(0 to 2 hrs) in cynomolgus monkey brain at 1 mg/kg, sc by LC-MS/MS analysis; type: ADME, organism-based, Macaca fascicularis; parameters: time < 2 hr, dose 1 mg/kg, route subcutaneous
[10] = AUC(0 to infinity) in Sprague-Dawley rat plasma at 3.2 mg/kg, sc by LC-MS/MS analysis; type: ADME, organism-based; parameters: time infinity, dose 3.2 mg/kg, route subcutaneous
[11] = AUC(0 to 2 hrs) in Sprague-Dawley rat cerebrospinal fluid at 3.2 mg/kg, sc by LC-MS/MS analysis; type: ADME, organism-based; parameters: time < 2 hr, dose 3.2 mg/kg, route subcutaneous
[12] = Ratio of drug level in brain to plasma in Beagle dog at 1 mg/kg, sc by LC-MS/MS analysis; type: ADME, organism-based, Canis lupus familiaris; parameters: dose 1 mg/kg, route subcutaneous; conditions: brain and plasma, read-out: BPR
[13] = Unbound fraction in Beagle dog brain at 1 mg/kg, sc by LC-MS/MS analysis; type: ADME, organism-based, Canis lupus familiaris; parameters: dose 1 mg/kg, route subcutaneous
[14] = Ratio of unbound brain concentration to drug level in cerebrospinal fluid in cynomolgus monkey at 1 mg/kg, sc by LC-MS/MS analysis; type: ADME, organism-based, Macaca fascicularis; parameters: dose 1 mg/kg, route subcutaneous; conditions: in vivo
[15] = Unbound fraction in cynomolgus monkey plasma at 1 mg/kg, sc by LC-MS/MS analysis; type: ADME, organism-based, Macaca fascicularis; parameters: dose 1 mg/kg, route subcutaneous
[16] = AUC(0 to 2 hrs) in cynomolgus monkey cerebrospinal fluid at 1 mg/kg, sc by LC-MS/MS analysis; type: ADME, organism-based, Macaca fascicularis; parameters: time < 2 hr, dose 1 mg/kg, route subcutaneous
[17] = AUC(0 to 4 hrs) in Beagle dog brain at 1 mg/kg, sc by LC-MS/MS analysis; type: ADME, organism-based, Canis lupus familiaris; parameters: time < 4 hr, dose 1 mg/kg, route subcutaneous
[18] = Ratio of unbound drug level in brain to plasma in cynomolgus monkey at 1 mg/kg, sc by LC-MS/MS analysis; type: ADME, organism-based, Macaca fascicularis; parameters: dose 1 mg/kg, route subcutaneous; conditions: brain and plasma
Nucleic Acid [19] = experiment: Ratio of drug level in cerebrospinal fluid to unbound plasma concentration in Sprague-Dawley rat at 3.2 mg/kg, sc by LC-MS/MS analysis; type: ADME, organism-based; parameters: dose 3.2 mg/kg, route subcutaneous; conditions: in vivo
[20] = AUC(0 to infinity) in Sprague-Dawley rat brain at 3.2 mg/kg, sc by LC-MS/MS analysis; type: ADME, organism-based; parameters: time infinity, dose 3.2 mg/kg, route subcutaneous
Nucleic Acid [21] = experiment: Ratio of drug level in cerebrospinal fluid to unbound plasma concentration in cynomolgus monkey at 1 mg/kg, sc by LC-MS/MS analysis; type: ADME, organism-based, Macaca fascicularis; parameters: dose 1 mg/kg, route subcutaneous; conditions: in vivo
[22] = Ratio of drug level in brain to plasma in cynomolgus monkey at 1 mg/kg, sc by LC-MS/MS analysis; type: ADME, organism-based, Macaca fascicularis; parameters: dose 1 mg/kg, route subcutaneous; conditions: brain and plasma, read-out: BPR
[23] = Ratio of unbound drug level in brain to plasma in Sprague-Dawley rat at 3.2 mg/kg, sc by LC-MS/MS analysis; type: ADME, organism-based; parameters: dose 3.2 mg/kg, route subcutaneous
[24] = AUC(0 to 2 hrs) in Sprague-Dawley rat brain at 3.2 mg/kg, sc by LC-MS/MS analysis; type: ADME, organism-based; parameters: time < 2 hr, dose 3.2 mg/kg, route subcutaneous
[25] = Unbound fraction in Beagle dog plasma at 1 mg/kg, sc by LC-MS/MS analysis; type: ADME, organism-based, Canis lupus familiaris; parameters: dose 1 mg/kg, route subcutaneous
[26] = AUC(0 to infinity) in Sprague-Dawley rat plasma at 10 mg/kg, sc by LC-MS/MS analysis; type: ADME, organism-based; parameters: dose 10 mg/kg, route subcutaneous, time infinity
[27] = AUC(0 to infinity) in Sprague-Dawley rat brain at 10 mg/kg, sc by LC-MS/MS analysis; type: ADME, organism-based; parameters: time infinity, dose 10 mg/kg, route subcutaneous
[28] = AUC(0 to 7 hrs) in Sprague-Dawley rat cerebrospinal fluid at 10 mg/kg, sc by LC-MS/MS analysis; type: ADME, organism-based; parameters: time < 7 hr, dose 10 mg/kg, route subcutaneous
[29] = Ratio of unbound drug level in brain to plasma in Sprague-Dawley rat at 10 mg/kg, sc by LC-MS/MS analysis; type: ADME, organism-based; parameters: dose 10 mg/kg, route subcutaneous
[30] = AUC(0 to 7 hrs) in Sprague-Dawley rat plasma at 10 mg/kg, sc by LC-MS/MS analysis; type: ADME, organism-based; parameters: time < 7 hr, dose 10 mg/kg, route subcutaneous
[31] = AUC(0 to infinity) in Sprague-Dawley rat cerebrospinal fluid at 10 mg/kg, sc by LC-MS/MS analysis; type: ADME, organism-based; parameters: time infinity, dose 10 mg/kg, route subcutaneous
[32] = Ratio of unbound brain concentration to drug level in cerebrospinal fluid in Sprague-Dawley rat at 10 mg/kg, sc by LC-MS/MS analysis; type: ADME, organism-based; parameters: dose 10 mg/kg, route subcutaneous; conditions: in vivo
[33] = Ratio of drug level in brain to plasma in Sprague-Dawley rat at 10 mg/kg, sc by LC-MS/MS analysis; type: ADME, organism-based; parameters: dose 10 mg/kg, route subcutaneous; conditions: read-out: BPR
[34] = AUC(0 to 7 hrs) in Sprague-Dawley rat brain at 10 mg/kg, sc by LC-MS/MS analysis; type: ADME, organism-based; parameters: time < 7 hr, dose 10 mg/kg, route subcutaneous

A Ratio [1] of 2.65, an AUC(0-t) at 2 h [2] of 150 ng·h/mL and an AUC(0-t) at 2 h [3] of 302 ng·h/mL were found for `CNCc1cc(F)c(Cl)cc1Oc1cccc(OC)c1C` in this work. The AUC(0-inf) [4] was 8.12 ng·h/mL, the fraction unbound [5] was 0.0038 and the Kp uu [6] was 4.61. For the same compound, the Kp [7] was 11.1, the AUC(0-t) at 4 h [8] was 134 ng·h/mL and the AUC(0-t) at 2 h [9] was 2250 ng·h/mL. For the same compound, the AUC(0-inf) [10] was 479 ng·h/mL, the AUC(0-t) at 2 h [11] was 6.42 ng·h/mL and the Kp [12] was 16.9. It also gave a fraction unbound [13] of 0.00443, a Ratio [14] of 3.92 and a fraction unbound [15] of 0.0279. It also gave an AUC(0-t) at 2 h [16] of 2.18 ng·h/mL, an AUC(0-t) at 4 h [17] of 2260 ng·h/mL and a Kp uu [18] of 2.04. For the same compound, the Ratio (Nucleic Acid [19]) was 1.47, the AUC(0-inf) [20] was 5570 ng·h/mL and the Ratio (Nucleic Acid [21]) was 0.52. It also gave a Kp [22] of 15, a Kp uu [23] of 3.9 and an AUC(0-t) at 2 h [24] of 3360 ng·h/mL. The fraction unbound [25] was 0.0162.
An AUC(0-inf) [26] of 958 ng·h/mL, an AUC(0-inf) [27] of 12900 ng·h/mL and an AUC(0-t) at 7 h [28] of 401 ng·h/mL were found for `CN(C)CCCC1(c2ccc(F)cc2)OCc2cc(C#N)ccc21` (racemic) [CITALOPRAM] in this work. For the same compound, the Kp uu [29] was 1.08, the AUC(0-t) at 7 h [30] was 930 ng·h/mL and the AUC(0-inf) [31] was 421 ng·h/mL. For the same compound, the Ratio [32] was 0.89, the Kp [33] was 13.4 and the AUC(0-t) at 7 h [34] was 12500 ng·h/mL.

From ChEMBL document CHEMBL3526130, “An evaluation of using rat-derived single-dose neuropharmacokinetic parameters to project accurately large animal unbound brain drug concentrations” (Drug Metab Dispos, 2012)
